Data as given in ChEMBL document CHEMBL3822418, “Enriching screening libraries with bioactive fragment space” (Bioorg Med Chem Lett, 2016).

Biological target: Casein kinase II subunit alpha (Homo sapiens, UniProt P68400)
Test: Inhibition of human CK2alpha (2 to 391 residues) using [33P]-ATP by scintillation counting based radioactive filter binding assay

Chain of Casein kinase II subunit alpha (P68400 whole entry, the tested form may be a part): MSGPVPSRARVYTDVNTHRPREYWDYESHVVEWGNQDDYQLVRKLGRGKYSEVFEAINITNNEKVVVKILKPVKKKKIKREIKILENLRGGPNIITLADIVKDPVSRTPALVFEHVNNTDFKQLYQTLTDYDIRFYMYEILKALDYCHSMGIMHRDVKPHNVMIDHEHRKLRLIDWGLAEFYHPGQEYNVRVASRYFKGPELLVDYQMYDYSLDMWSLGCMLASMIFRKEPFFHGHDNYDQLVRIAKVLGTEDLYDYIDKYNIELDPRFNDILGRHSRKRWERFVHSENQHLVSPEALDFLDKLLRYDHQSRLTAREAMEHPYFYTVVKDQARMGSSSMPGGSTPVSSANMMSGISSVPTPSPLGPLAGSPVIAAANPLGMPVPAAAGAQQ

IC50 [µM]	Compound
> 200	CCc1nnc(-c2cccc(NC(=O)c3n[nH]c4ccccc34)c2)o1
> 200	O=C(Nc1n[nH]c2cccc(F)c12)c1ccc2c(c1)CCO2
> 200	O=C(Nc1ccccc1)c1n[nH]c2ccc([N+](=O)[O-])cc12
> 200	Cc1cc2cc(NC(=O)c3n[nH]c4ccccc34)ccc2[nH]1
